Source: patent US9498483B2, “2,3,5-trisubstituted thiophene compounds and uses thereof” (priority 2010, dated 2016)

What was measured:
[1] = tested on: HCV replicon I389luc-ubi-neo/NS3-3′/ET in ET (Huh-lucubineo-ET) cells; assay: Replicon assay (Biological Example 2), luciferase readout; format: cell-based; settings: Hepatitis C virus
Method in brief: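 EC50 values come from Hill fits of % inhibition of replicon-driven firefly luciferase, relative to no-compound wells. Compounds were serially diluted (10 points, 3-fold, 0.1 nM–50 μM final, 0.5% DMSO) onto ET replicon cells and read after 48 h.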

HCV polymerase = biological target: T1, HCV polymerase (Hepatitis C virus genotype 1b, UniProt Q9WMX2); assay: Polymerase assay of Biological Example 1 (IC50 values of Table 3); format: biochemical; settings: IC50 values of Table 3, polymerase assay of Biological Example 1; read-out: NS5B-enzyme3
T1 construct: (His)6 (C); made in house; host or cells: XL-1 cells (E. coli, by own knowledge)

[2] = ET cells, luciferase activity 48 hours after compound

Structure (SMILES)	IC50 [1, 2] [µM]	IC50 (HCV polymerase) [µM]	IC50 ([1]; between 100 nM and 5.0 uM) [µM]
O=C(O)c1sc(-c2ccccc2)cc1N1C(=O)CN(S(=O)(=O)c2ccc(N3C4CCC3CC4)nc2)CC1C1CCCCC1 (stereo not drawn) [Compound 125, 3-{4-[6-(7-Aza-bicyclo[2.2.1]hept-7-yl)-pyridine-3-sulfonyl]-2-cyclohexyl-6-oxo-piperazin-1-yl}-5-phenyl-thiophene-2-carboxylic acid]	≤ 0.1	0.018	–
CN1CCN(c2ccc(S(=O)(=O)N3CC(=O)N(c4cc(-c5ccccc5)sc4C(=O)O)[C@H](C4CCCCC4)C3)cn2)CC1 [Compound 137, 3-{(R)-2-Cyclohexyl-4-[6-(4-methyl-piperazin-1-yl)-pyridine-3-sulfonyl]-6-oxo-piperazin-1-yl}-5-phenyl-thiophene-2-carboxylic acid]	≤ 0.1	0.0015	–
CC(O)C1CCC(C2CCCCC2)N(c2cc(C#CC(C)(C)C)sc2C(=O)O)C1=O (stereo not drawn) [Compound 316, 3-[6-Cyclohexyl-3-(1-hydroxy-ethyl)-2-oxo-piperidin-1-yl]-5-(3,3-dimethyl-but-1-ynyl)-thiophene-2-carboxylic acid]	≤ 0.1	0.003	–
N#Cc1ccc(-c2cc(N3C(=O)CCCC3C3CCCCC3)c(C(=O)O)s2)cc1 (stereo not drawn) [Compound 129, 5-(4-Cyano-phenyl)-3-(2-cyclohexyl-6-oxo-piperidin-1-yl)-thiophene-2-carboxylic acid]	–	0.096	0.1 to 5
O=C(O)c1sc(-c2ccc(Cl)cc2)cc1N1C(=O)CCCC1C1CCCCC1 (stereo not drawn) [Compound 73, 5-(4-Chloro-phenyl)-3-(2-cyclohexyl-6-oxo-piperidin-1-yl)-thiophene-2-carboxylic acid]	–	0.021	0.1 to 5
CC1(N)CCN(c2ccc(S(=O)(=O)N3CC(=O)N(c4cc(-c5ccccc5)sc4C(=O)O)[C@H](C4CCCCC4)C3)cn2)CC1 [Compound 138, 3-[(R)-4-(4-Amino-4-methyl-3,4,5,6-tetrahydro-2H-[1,2′]bipyridinyl-5′-sulfonyl)-2-cyclohexyl-6-oxo-piperazin-1-yl]-5-phenyl-thiophene-2-carboxylic acid]	≤ 0.1	0.001	–
Cc1occc1-c1ccc(S(=O)(=O)N2CC(=O)N(c3cc(-c4ccccc4)sc3C(=O)O)[C@H](C3CCCCC3)C2)cn1 [Compound 211, 3-{(R)-2-Cyclohexyl-4-[6-(2-methyl-furan-3-yl)-pyridine-3-sulfonyl]-6-oxo-piperazin-1-yl}-5-phenyl-thiophene-2-carboxylic acid]	–	0.002	0.1 to 5
C[C@@H]1CCCN1c1ccc(S(=O)(=O)N2CC(=O)N(c3cc(-c4ccccc4)sc3C(=O)O)C(C3CCCCC3)C2)cn1 (stereo partly drawn) [Compound 118, 3-{2-Cyclohexyl-4-[6-((R)-2-methyl-pyrrolidin-1-yl)-pyridine-3-sulfonyl]-6-oxo-piperazin-1-yl}-5-phenyl-thiophene-2-carboxylic acid]	≤ 0.1	0.002	–
O=C(O)c1sc(-c2ccccc2)cc1N1C(=O)CN(S(=O)(=O)c2ccc(N3CC4CC3CO4)nc2)C[C@H]1C1CCCCC1 (stereo partly drawn) [Compound 217, 3-{(R)-2-Cyclohexyl-4-[6-(2-oxa-5-aza-bicyclo[2.2.1]hept-5-yl)-pyridine-3-sulfonyl]-6-oxo-piperazin-1-yl}-5-phenyl-thiophene-2-carboxylic acid]	≤ 0.1	0.001	–
C[C@H]1OCC(=O)N(c2cc(C#CC(C)(C)C)sc2C(=O)O)[C@@H]1C1CCCCC1 [Compound 291, 3-((2R,3R)-3-Cyclohexyl-2-methyl-5-oxo-morpholin-4-yl)-5-(3,3-dimethyl-but-1-ynyl)-thiophene-2-carboxylic acid]	≤ 0.1	0.008	–
CC(C)(C)C#Cc1cc(N2C(=O)[C@H](CCO)OC[C@H]2C2CCCCC2)c(C(=O)O)s1 [Compound 332, 3-[(2S,5R)-5-Cyclohexyl-2-(2-hydroxy-ethyl)-3-oxo-morpholin-4-yl]-5-(3,3-dimethyl-but-1-ynyl)-thiophene-2-carboxylic acid]	≤ 0.1	0.012	–
O=C(O)c1sc(-c2ccccc2)cc1N1C(=O)CN(S(=O)(=O)c2cccc(OC(F)(F)F)c2)CC1C1CCCCC1 (stereo not drawn) [Compound 59]	–	0.039	0.1 to 5
O=C(O)c1sc(-c2ccccc2)cc1N1C(=O)CN(S(=O)(=O)CCc2ccccc2)CC1C1CCCCC1 (stereo not drawn) [Compound 39, 3-[2-Cyclohexyl-6-oxo-4-(2-phenyl-ethanesulfonyl)-piperazin-1-yl]-5-phenyl-thiophene-2-carboxylic acid]	–	0.051	0.1 to 5
Cc1noc(C)c1S(=O)(=O)N1CC(=O)N(c2cc(-c3ccccc3)sc2C(=O)O)C(C2CCCCC2)C1 (stereo not drawn) [Compound 32, 3-[2-Cyclohexyl-4-(3,5-dimethyl-isoxazole-4-sulfonyl)-6-oxo-piperazin-1-yl]-5-phenyl-thiophene-2-carboxylic acid]	≥ 5	0.241	–
O=C(O)c1sc(-c2ccccc2)cc1N1C(=O)CN(S(=O)(=O)c2ccc(N3CCCCC3)nc2)C[C@H]1C1CCCCC1 [Compound 179, 3-[(R)-2-Cyclohexyl-6-oxo-4-(3,4,5,6-tetrahydro-2H-[1,2′]bipyridinyl-5′-sulfonyl)-piperazin-1-yl]-5-phenyl-thiophene-2-carboxylic acid]	≤ 0.1	0.001	–
CC(C)(C)C#Cc1cc(N2C(=O)CN(S(=O)(=O)c3cccc(Cl)c3)C[C@H]2C2CCCCC2)c(C(=O)O)s1 [Compound 242, 3-[(R)-4-(3-Chlorobenzenesulfonyl)-2-cyclohexyl-6-oxo-piperazin-1-yl]-5-(3,3-dimethyl-but-1-ynyl)-thiophene-2-carboxylic acid]	–	0.005	0.1 to 5
O=C(O)c1sc(-c2ccccc2)cc1N1C(=O)CN(S(=O)(=O)c2ccc(N3CCSCC3)nc2)CC1C1CCCCC1 (stereo not drawn) [Compound 79, 3-[2-Cyclohexyl-6-oxo-4-(6-thiomorpholin-4-yl-pyridine-3-sulfonyl)-piperazin-1-yl]-5-phenyl-thiophene-2-carboxylic acid]	≤ 0.1	0.004	–
COC1CCN(c2ccc(S(=O)(=O)N3CC(=O)N(c4cc(-c5ccccc5)sc4C(=O)O)C(C4CCCCC4)C3)cn2)CC1 (stereo not drawn) [Compound 94, 3-[2-Cyclohexyl-4-(4-methoxy-3,4,5,6-tetrahydro-2H-[1,2′]bipyridinyl-5′-sulfonyl)-6-oxo-piperazin-1-yl]-5-phenyl-thiophene-2-carboxylic acid]	≤ 0.1	0.002	–
CN(C)C1CCN(c2ccc(S(=O)(=O)N3CC(=O)N(c4cc(-c5ccccc5)sc4C(=O)O)[C@H](C4CCCCC4)C3)cn2)CC1 [Compound 147, 3-[(R)-2-Cyclohexyl-4-(4-dimethylamino-3,4,5,6-tetrahydro-2H-[1,2′]bipyridinyl-5′-sulfonyl)-6-oxo-piperazin-1-yl]-5-phenyl-thiophene-2-carboxylic acid]	≤ 0.1	0.001	–
CCn1cc(S(=O)(=O)N2CC(=O)N(c3cc(-c4ccc(C)cc4)sc3C(=O)O)[C@H](C3CCCCC3)C2)cn1 [Compound 296, 3-[(R)-2-Cyclohexyl-4-(1-ethyl-1H-pyrazole-4-sulfonyl)-6-oxo-piperazin-1-yl]-5-p-tolyl-thiophene-2-carboxylic acid]	≤ 0.1	0.005	–
CC(C)(C)C#Cc1cc(N2C(=O)CCCC2C2CCCCC2)c(C(=O)O)s1 (stereo not drawn) [Compound 19, 3-(2-Cyclohexyl-6-oxo-piperidin-1-yl)-5-(3,3-dimethyl-but-1-ynyl)-thiophene-2-carboxylic acid]	≤ 0.1	0.015	–
CC(C)(C)C#Cc1cc(N2C(=O)CN(S(=O)(=O)c3ccccc3OC(F)(F)F)C[C@H]2C2CCCCC2)c(C(=O)O)s1 [Compound 249, 3-[(R)-2-Cyclohexyl-6-oxo-4-(2-trifluoromethoxy-benzenesulfonyl)-piperazin-1-yl]-5-(3,3-dimethyl-but-1-ynyl)-thiophene-2-carboxylic acid]	–	0.019	0.1 to 5
CC(C)(C)C#Cc1cc(N2C(=O)OCCC2C2CCCCC2)c(C(=O)O)s1 (stereo not drawn) [Compound 308, 3-(4-Cyclohexyl-2-oxo-[1,3]oxazinan-3-yl)-5-(3,3-dimethyl-but-1-ynyl)-thiophene-2-carboxylic acid]	≤ 0.1	0.014	–
C[C@@H](O)CC[C@@]1(C)OC[C@@H](C2CCCCC2)N(c2cc(C#CC(C)(C)C)sc2C(=O)O)C1=O [Compound 321, 3-[(2R,5R)-5-Cyclohexyl-2-((R)-3-hydroxy-butyl)-2-methyl-3-oxo-morpholin-4-yl]-5-(3,3-dimethyl-but-1-ynyl)-thiophene-2-carboxylic acid]	≤ 0.1	0.002	–
Cc1ccc(CN2CC(=O)N(c3cc(C#CC(C)(C)C)sc3C(=O)O)C(C3CCCCC3)C2)cc1 (stereo not drawn) [Compound 174, 3-[2-Cyclohexyl-4-(4-methyl-benzyl)-6-oxo-piperazin-1-yl]-5-(3,3-dimethyl-but-1-ynyl)-thiophene-2-carboxylic acid]	≥ 5	5.11	–
O=C(O)c1sc(-c2ccccc2)cc1N1C(=O)CN(S(=O)(=O)c2ccc(NC3CCOCC3)nc2)CC1C1CCCCC1 (stereo not drawn) [Compound 90, 3-{2-Cyclohexyl-6-oxo-4-[6-(tetrahydro-pyran-4-ylamino)-pyridine-3-sulfonyl]-piperazin-1-yl}-5-phenyl-thiophene-2-carboxylic acid]	≤ 0.1	0.004	–
Cc1ncc(S(=O)(=O)N2CC(=O)N(c3cc(C#CC(C)(C)C)sc3C(=O)O)[C@H](C3CCCCC3)C2)n1C [Compound 255, 3-[(R)-2-Cyclohexyl-4-(2,3-dimethyl-3H-imidazole-4-sulfonyl)-6-oxo-piperazin-1-yl]-5-(3,3-dimethyl-but-1-ynyl)-thiophene-2-carboxylic acid]	–	0.005	0.1 to 5
